Assay results from PubChem BioAssay AID2060488 (Molecular Pharmacology Branch, DTP, NCI, 2025).

Test system: 966289-007-R4-J1-PDC complex spheroid viability
Test: Anticancer human tumor 966289-007-R4-J1-PDC patient-derived pancreatic adenocarcinoma cell line growth inhibition [GQUAD]
Settings: for IC50: curve of first compound; for viability, T/C: stronger effect = lower value
Text: DNA G-quadruplex Stabilizer Agents in Combinations in Complex Spheroids
A high-throughput screen of multi-cell type tumor spheroids was designed to identify active combinations of DNA G-quadruplex stabilizer agents and targeted small molecules. Complex spheroids include a stromal component modeled by human endothelial cells (HUVEC) and fibroblasts modeled by human mesenchymal stem cells (MSCs). The concentration ranges selected for each drug and investigational agent were based upon clinically achievable concentrations if the clinical Cmax of the agent was known.
Compounds. The drugs and investigational agents: pidnarulex (CX-5461; NSC782164), APTO-253 (NSC789042), BRACO-19 (NSC847499), peposertib (NSC802822), ceralasertib (NSC780249), elimusertib (NSC800525), camonsertib (NSC841442), AZD-1390 (NSC803789), olaparib (NSC753686), talazoparib (NSC767125), ART-558 (NSC835418), sotorasib (NSC818433), MRTX-1133 (NSC836407), SN-38 (NSC673596), topotecan (NSC609699), etoposide (NSC141540), doxorubicin (NSC123127), gemcitabine (NSC613327), 5-fluorouracil (NSC19893), paclitaxel (NSC125973), vemurafenib (NSC761431), panobinostat (NSC761190), R-306465 (JNJ-16241199; NSC773264), adavosertib (NSC754352), TP-3654 (NSC805149), carboplatin (NSC241240), KSQ-4279 (NSC840948), and staurosporine (NSC755774) were obtained from the National Cancer Institute (NCI) Developmental Therapeutics Program Chemical Repository (34). The FDA-approved anticancer drug set is available from the NCI Developmental Therapeutics Program. […] The stock solutions were prepared in dimethyl sulfoxide (DMSO, Sigma-Aldrich, St. Louis, MO, cat. D2650) at 800-fold the tested concentration and stored at -70 degrees C prior to their use. All drugs and investigational agents were tested over a range starting from a high concentration at or near the clinical Cmax and decreasing in half-log increments. If the clinical Cmax for an agent had not been determined, the highest concentration tested was 10 microM.
2.3 Cell Culture. All cells were maintained in an incubator at 37 degrees C and 5% CO2 with 95% humidity. The PDC lines were cultured according to standard operating procedures established by the NCI PDMR. All PDCs were thawed and cultured in Matrigel-coated flasks prepared with a working solution of 1X Ham's F-12 nutrient mix, without supplementation (Invitrogen, cat. 11765054), 100 U/mL penicillin-streptomycin (Invitrogen, cat. 15140122), and 2.5% Matrigel (Corning Inc., cat. 354248) for the first three passages. The 857933-349-R-J2-PDC line was cultured in 6C/Colon 1B media, which includes advanced DMEM/F-12 (Thermo Fisher Scientific, cat. 12634028), 10 mM HEPES (Thermo Fisher Scientific, cat. 15630080), 1X GlutaMAX supplement (Thermo Fisher Scientific, cat. 35050061), 0.1 mg/mL primocin (InvivoGen, cat. ant-pm-2), 10% defined fetal bovine serum, heat inactivated (HyClone Laboratories Inc., cat. SH30070.03HI), 50% L-WRN conditioned media (ATCC, cat. CRL-3276), 1.25 mM N-Acetyl-L-cysteine (Sigma-Aldrich, cat. A9165), 10 mM nicotinamide (Sigma-Aldrich, cat. N0636), 1X B-27 supplement (Thermo Fisher Scientific, cat. 17504044), 1X N-2 supplement (Thermo Fisher Scientific, cat. 17502048), 10 microM Y-27632 dihydrochloride (Tocris Bioscience, cat. 1254), and 50 ng/mL human EGF recombinant protein (Thermo Fisher Scientific, cat. PHG0311). The 485176-168-R4-J1-PDC line was cultured in Panc media, which includes all 6C/Colon 1B media components plus 100 ng/mL human FGF-10 (Thermo Fisher Scientific, cat. 100-26), 500 nM SB-431542 (Selleckchem, cat. S1067), and gastrin (Tocris, cat. 3006).
[…]

[1] = second compound 0.0316 µM, first compound 0.0316 µM
[2] = second compound 0.0316 µM, first compound 0.1 µM
[3] = second compound 0.0316 µM, first compound 0.316 µM
[4] = second compound 0.0316 µM, first compound 1 µM
[5] = second compound 0.0316 µM, first compound 3.16 µM
[6] = second compound 0.0316 µM, first compound 10 µM
[7] = second compound 0.1 µM, first compound 0.0316 µM
[8] = second compound 0.1 µM, first compound 0.1 µM
[9] = second compound 0.1 µM, first compound 0.316 µM
[10] = second compound 0.1 µM, first compound 1 µM
[11] = second compound 0.1 µM, first compound 3.16 µM
[12] = second compound 0.1 µM, first compound 10 µM
[13] = second compound 0.316 µM, first compound 0.0316 µM
[14] = second compound 0.316 µM, first compound 0.1 µM
[15] = second compound 0.316 µM, first compound 0.316 µM
[16] = second compound 0.316 µM, first compound 1 µM
[17] = second compound 0.316 µM, first compound 3.16 µM
[18] = second compound 0.316 µM, first compound 10 µM
[19] = second compound 1 µM, first compound 0.0316 µM
[20] = second compound 1 µM, first compound 0.1 µM
[21] = second compound 1 µM, first compound 0.316 µM
[22] = second compound 1 µM, first compound 1 µM
[23] = second compound 1 µM, first compound 3.16 µM
[24] = second compound 1 µM, first compound 10 µM
[25] = second compound 3.16 µM, first compound 0.0316 µM
[26] = second compound 3.16 µM, first compound 0.1 µM
[27] = second compound 3.16 µM, first compound 0.316 µM
[28] = second compound 3.16 µM, first compound 1 µM
[29] = second compound 3.16 µM, first compound 3.16 µM
[30] = second compound 3.16 µM, first compound 10 µM
[31] = second compound 10 µM, first compound 0.0316 µM
[32] = second compound 10 µM, first compound 0.1 µM
[33] = second compound 10 µM, first compound 0.316 µM
[34] = second compound 10 µM, first compound 1 µM
[35] = second compound 10 µM, first compound 3.16 µM
[36] = second compound 10 µM, first compound 10 µM
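Further: spheroids exposed to the agents for seven days before readout.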
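Wherever viability, T/C is given: percent viability relative to DMSO vehicle control wells taken as 100%.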

COc1cccc2c1C(=O)c1c(O)c3c(c(O)c1C2=O)CC(O)(C(=O)CO)CC3OC1CC(N)C(O)C(C)O1 (centres undefined) + Cc1[nH]c2ccc(F)cc2c1-c1nc2c3cccnc3c3ncccc3c2[nH]1
IC50 (second compound 0.0316 µM): 67.3 nM | IC50 (second compound 0.1 µM): 63.6 nM | IC50 (second compound 0.316 µM): 61.1 nM | IC50 (second compound 1 µM): 61.2 nM | IC50 (second compound 3.16 µM): 56.5 nM | IC50 (second compound 10 µM): 52 nM | viability, T/C [1]: 114% | viability, T/C [2]: 16.4% | viability, T/C [3]: 1.91% | viability, T/C [4]: 0.7% | viability, T/C [5]: 0.21% | viability, T/C [6]: 0.6% | viability, T/C [7]: 104% | viability, T/C [8]: 15.1% | viability, T/C [9]: 2.16% | viability, T/C [10]: 0.91% | viability, T/C [11]: 0.22% | viability, T/C [12]: 0.26% | viability, T/C [13]: 100% | viability, T/C [14]: 12.6% | viability, T/C [15]: 2.39% | viability, T/C [16]: 0.78% | viability, T/C [17]: 0.23% | viability, T/C [18]: 0.33% | viability, T/C [19]: 97.1% | viability, T/C [20]: 14.7% | viability, T/C [21]: 2.52% | viability, T/C [22]: 0.71% | viability, T/C [23]: 0.32% | viability, T/C [24]: 0.5% | viability, T/C [25]: 87.9% | viability, T/C [26]: 12.9% | viability, T/C [27]: 2.39% | viability, T/C [28]: 0.86% | viability, T/C [29]: 0.29% | viability, T/C [30]: 0.56% | viability, T/C [31]: 79.9% | viability, T/C [32]: 10.9% | viability, T/C [33]: 1.72% | viability, T/C [34]: 0.61% | viability, T/C [35]: 0.4% | viability, T/C [36]: 0.57%

COc1ncnc(C2CC2)c1-c1ncc2cnn(Cc3ccc(-c4nc(C(F)(F)F)cn4C(C)C)cc3)c2n1 + Cc1[nH]c2ccc(F)cc2c1-c1nc2c3cccnc3c3ncccc3c2[nH]1
IC50 (second compound 0.0316 µM): > 10000 nM | IC50 (second compound 0.1 µM): > 10000 nM | IC50 (second compound 0.316 µM): > 10000 nM | IC50 (second compound 1 µM): > 10000 nM | IC50 (second compound 3.16 µM): > 10000 nM | IC50 (second compound 10 µM): > 10000 nM | viability, T/C [1]: 106% | viability, T/C [2]: 99.2% | viability, T/C [3]: 104% | viability, T/C [4]: 99.7% | viability, T/C [5]: 104% | viability, T/C [6]: 107% | viability, T/C [7]: 106% | viability, T/C [8]: 105% | viability, T/C [9]: 104% | viability, T/C [10]: 99.6% | viability, T/C [11]: 100% | viability, T/C [12]: 107% | viability, T/C [13]: 101% | viability, T/C [14]: 99.8% | viability, T/C [15]: 107% | viability, T/C [16]: 100% | viability, T/C [17]: 102% | viability, T/C [18]: 96.5% | viability, T/C [19]: 98.2% | viability, T/C [20]: 105% | viability, T/C [21]: 107% | viability, T/C [22]: 104% | viability, T/C [23]: 108% | viability, T/C [24]: 110% | viability, T/C [25]: 107% | viability, T/C [26]: 106% | viability, T/C [27]: 108% | viability, T/C [28]: 108% | viability, T/C [29]: 109% | viability, T/C [30]: 110% | viability, T/C [31]: 107% | viability, T/C [32]: 104% | viability, T/C [33]: 109% | viability, T/C [34]: 104% | viability, T/C [35]: 111% | viability, T/C [36]: 111%
